Experimental data taken from patent US20170014372A1, “Drug Combination for Treatment of Proliferative Diseases” (ECOLE POLYTECHNIQUE FEDERALE DE LAUSANNE (EPFL), priority 2014, published 2017).

Key:
786-0 cells = test: Cell viability assay on 786-0; format: cell-based, human; settings: 72 h
Method: (§1) Cell viability assay was performed as previously described (31). Cells were seeded in a 96-well culture plate at a density of 2.5-10×10^3 cells/well, depending on cell type (ECRF24 in gelatin-coated plates), 24 h prior to the application drug combinations or control conditions (in a total volume of 50 μl) and were subsequently incubated for an additional 72 h. Cell viability was assessed using the CellTiter-Glo luminescent cell viability assay (Promega, Madison, Wisc., USA).

ECRF24 cells = test: Cell viability (proliferation) assay on endothelial cells ECRF24; format: cell-based, human; settings: for single-drug dose required for the same EC proliferation inhibition as the best combination (90% inhibition): assuming linear dose-response curves; for theoretical dose reduction in combination: vs single-drug dose for 90% inhibition
Method: (§2) Cell viability assay was performed as previously described (31).
The feedback system control (FSC) technique was employed as previously described (13, 33, 34). In the research presented here, the FSC technique is implemented using the differential evolution (DE) algorithm (35) and two separate optimization were performed with the cellular outputs of ECRF cell viability (proliferation) and migration (wound healing) assays. 19 drug combinations were tested per iteration and 11 iterations were performed in each optimization, or until a plateau in the best output value was reached.
Drug mixing was performed as follows: stock solutions were first used to prepare the highest concentration of each compound and lower concentrations were prepared through serial dilutions of the higher concentrations. All drug concentrations were prepared 9 times more concentrated than desired to account for dilution by other compounds (or medium when a compound was not included). The drug mixtures were prepared directly before applying drug combinations to cells by first adding the required amount of medium for each combination (i.e.
all compounds which are included at concentration 0) and then adding the required concentration of each compound, always in the same order. The cells were incubated in 50 μl of each mixture for 72 h in the proliferation assay or for 6 h in the migration assay.
Second order linear regression models were generated using the data obtained from each optimization. Data was modeled using real concentration values and both concentration values and proliferation output data was transformed using the z-score function in Matlab. The negative values of the 2nd-order terms regression coefficients corresponds to synergistic effect, the positive value to the antagonistic effect. Appropriate data and model verification methods were implemented to ensure the accuracy and reliability of predictions made based on these models. The main assumptions of linear regression models were verified (i.e. weak exogeneity, linearity, constant variance, independence of errors, and lack of multicolinearity). As the presence of multicolinearity was indicated in a few of the regressors in the second order linear regression model of the proliferation data (based on the analysis of variance inflation factors (VIF) and condition indices), a stepwise linear regression was also performed to isolate the most important regressors and remove instabilities in the regression analysis due to multicolinearity. Drug interactions were additionally analyzed using the Compusyn software (14), where a ‘combination index’ (CI) is calculated for drug combinations and CI values less than […] indicate synergistic drug combinations, while CI-values greater than 1 indicate antagonistic drug.

HUVEC = test: Cell viability assay on HUVEC; format: cell-based, human; settings: 72 h
Method: as §2

A2780 cells = test: Cell viability assay on A2780; format: cell-based, human; settings: 72 h
Method: as §1

[1] = system: panAKT, pMAPK and ribosomal protein S6 (pS6); test: Western blot of panAKT, pMAPK and pS6 in ECRF24; format: cell-based, human; settings: 5 hrs incubation
Method: Cells were seeded in a 6-well plate (30×10^4 cells per well) 24 h prior to the removal of medium and application of selected drug combinations or DMSO control (total volume of 2 mL). After an additional 5 hrs of incubation at the given conditions, medium was removed, cells were washed with PBS and 100 μl of buffer lysate was added (prepared on ice and composed of RIPA, protease inhibitors (1:1000) and sodium orthovanadate (1:1000)). Wells were then scratched and cell lysate solution was removed and put on ice for 10 min. Cell supernatant was isolated after centrifuging solution at 12,000 min^−1 for 15 min. A solution of blue buffer (4×)+u-Page Reducing Agent (10×) was added to supernatant and samples were kept at 95 ° C. for 5 min.
The samples were then run in an electrophoresis gel for 90 min at 125 V. The monoclonal antibodies included phosphorylated Akt (473), total Akt, phosphorylated MAPK, and phosphorylated S6 (235/236 hamster, Cell Signaling). Cell extracts were prepared by detergent lysis [50 mmol/L Tris-HCl (pH 8.0), 150 mmol/L NaCl, 1% NP40, 0.5% sodium deoxycholate, 0.1% SDS containing protease (Sigma, St. Louis, Mo.) and phosphatase (Sigma) inhibitor cocktails]. The soluble protein concentration was determined by micro-BSA assay (Pierce, Rockford Ill.). Protein immunodetection was done by electrophoretic transfer of SDS-PAGE separated proteins to nitrocellulose, incubation with antibody and chemiluminescent second step detection (PicoWest; Pierce). Protein expression was quantified in Fiji by densitometry as previously described (39, 40). Results were expressed as a relative ratio between samples and control.

[2] = system: A2780 tumors grafted on the CAM; test: Human ovarian carcinoma (A2780) grafted on the chicken chorioallantoic membrane (CAM); format: in vivo, chicken embryo; settings: for tumor growth inhibition, single compound at high concentration: high concentration: 29 μg/kg (4) and 615 μg/kg (8); for tumor growth inhibition, single compound at low concentration: low concentration: 2.9 μg/kg (4) and 307 μg/kg (8)
Method: Human ovarian carcinoma tumors were implanted on the CAM as previously described (36). Briefly, fertilized chicken eggs were incubated in a hatching incubator (37° C. and relative humidity 65%), as previously described (37). […] Treatment began when vascularized tumors were visible, 3 days after tumor implantation (EDD10). Drug combinations were prepared as done in in vitro assays, were pre-mixed and administered as a 20 μL intravenously injection. […] On the last day of experiment CAM experiments, tumors were resected, fixed overnight in zinc fixative solution as previously described (38). […] Primary antibody incubation was performed overnight (DIA-310; Dianova, Hamburg, Germany).

LS174T tumors = test: Human colorectal adenocarcinoma (LS174T) grafted intradermally in Swiss nu/nu mice; format: in vivo; settings: treated daily; for tumor growth inhibition: doses per Table 2
Method: Mice were randomized into groups and treated with sham (CTRL), individual drugs, 4+8+9 (M1 and M2), and 4+8 (M3), respectively (Table 2) Individual drugs inhibited tumor growth only by approximately 0% and 6% (4) at 5 and 15 mg/kg, 10% (8) or 23% (9), whereas combinations M1 and M2 by 76±14% and 25±17%, respectively (FIG. 5D). On the last day of the experiment (FIG. 5E) tumors were resected, and paraffin embedded for immunohistochemical staining for endothelial cells (CD31). In M1-treated tumors microvessel density was approximately 80% lower then in sham-treated tumors (CTRL), FIG. 5F.
FIG. 5. Inhibition of A2780 (A-C) or LS174T (D-F) tumor growth in vivo by the best mixtures optimized. (A) Growth curve of A2780 tumors grafted on the CAM showing tumor volume with respect to treatment day. Treatment was administered i.v. on days 1 and 2 and tumors were excised on the 8th (last) day of experiment. Data points represent the average tumor volume as a percentage of the final control volume per experiment. (B) Figures show representative tumors of sham treated (CTRL) and F drug combination. (C) The microvessel density profiles are expressed as the number of vessels per mm^2 and presented as a percentage of a control. (D) LS174T grafted intradermally in Swiss nu/nu mice and treated daily with single compounds or mixtures. Data points represent the average tumor volume as a percentage of the final control volume per experiment and error bars represent the SEM; N=3-9. *p <0.05 and **p<0.01. ‘S’ indicates synergy (Cl≦0.8). (E) The microvessel density profiles are expressed as the number of vessels per mm^2 and presented as a percentage of a control. […] The bar in the upper right image represents 0.5 mm and is valid for both images. Data points represent average values of 2 independent experiments and error bars represent SEM; N=3-7; **p<0.01.

[3] = system: renal cell carcinoma (Caki-1) cells; settings: combinations of Table 4
Method: as §1

Row | Molecule | single-drug dose required for the same EC proliferation inhibition as the best combination (90% inhibition) (ECRF24 cells) | theoretical dose reduction in combination (ECRF24 cells) [fold] | inhibition of HUVEC viability (HUVEC) | pAkt protein [1] | tumor growth inhibition, single compound at high concentration [2] [%] | tumor growth inhibition, single compound at low concentration [2] | tumor growth inhibition (LS174T tumors) [%] | also measured
1 | CNC(=O)c1ccccc1Sc1ccc2c(/C=C/c3ccccn3)n[nH]c2c1 [compound 3, axitinib] |  |  |  |  |  |  |  | inhibition of 786-0 cell viability (786-0 cells): approx. 30%
2 | C#Cc1cccc(Nc2ncnc3cc(OCCOC)c(OCCOC)cc23)c1 [compound 4, erlotinib] | approximately 50 μM | 5 | more sensitive | slight decrease | ~20 | approximately 6% |  | inhibition of A2780 cell viability (A2780 cells): approximately 40%; tumor growth inhibition at 5 mg/kg (LS174T tumors; 5 mg/kg): approximately 0%; tumor growth inhibition at 15 mg/kg (LS174T tumors; 15 mg/kg): ~6%
3 | Cc1ccc(C(C)C)cc1.[Cl][Ru]([Cl])[PH]12CN3CN(CN(C3)C1)C2 [compound 8, RAPTA-C] | ~2000 µM | 11 |  | slight decrease | ~20 | approximately 6% | ~10 | 
4 | Cn1c(=O)n(-c2ccc(C(C)(C)C#N)cc2)c2c3cc(-c4cnc5ccccc5c4)ccc3ncc21 [compound 9, BEZ-235] | ~0.12 µM | 6 | more sensitive |  |  |  | ~23 | pS6 expression [1]: nearly complete inhibition; pS6 expression ([1]; listed as BEZ235): inhibited; tumor growth inhibition, single compound at its applied concentration ([2]; limiting compound, dose used in the combinations): approximately 35%
5 | AZD4547 |  |  |  |  |  |  |  | inhibition of Caki-1 cell proliferation / synergy [3]: effective and synergistic inhibition
